This passage reports EC50 results from patent EP1873155A1, “Inhibitors of the HIV integrase enzyme” (PFIZER INC., priority 2004, dated 2005).

In the first assay the test system is RF strain of HIV-1. As to the kind of experiment: HIV-1 cell protection assay (XTT dye reduction). The assay is classed as cell-based. As to conditions: Human immunodeficiency virus 1, CEM-SS, 144 h. The protocol:
Example 61: HIV-1 Cell Protection Assay
The antiviral activities of potential modulator compounds (test compounds) were determined in HIV-1 cell protection assays using the RF strain of HIV-1, CEM-SS cells, and the XTT dye reduction method (Weislow, O.S. et al., J. Natl. Cancer Inst. 81: 577-586 (1989)). Subject cells were infected with HIV-1 RF virus at an moi of 0.025 to 0.819 or mock infected with medium only and added at 2 x 10^4 cells per well into 96 well plates containing half-log dilutions of test compounds. Six days later, 50 µl of XTT solution (1 mg/ml XTT tetrazolium and […] phenazine methosulfate) were added to the wells and the plates were reincubated for four hours. Viability, as determined by the amount of XTT formazan produced, was quantified spectrophotometrically by absorbance at 450 nm.
Data from CPE assays were expressed as the percent of formazan produced in compound-treated cells compared to formazan produced in wells of uninfected, compound-free cells. […] The therapeutic index was calculated by dividing the cytotoxicity (CC50) by the antiviral activity (EC50).
`O=C(c1cn(Cc2ccc(F)cc2)c2cnc3c(=O)n(O)ccc3c12)N1CCCC1` [Example 26, 3-(4-fluorobenzyl)-7-hydroxy-1-(pyrrolidin-1-ylcarbonyl)-3,7-dihydro-6H-pyrrolo[2,3-c]-1,7-naphthyridin-6-one] registered an EC50 of 5 nM.

`O=C(NCCc1cnccn1)c1cn(Cc2ccc(F)cc2)c2cnc3c(=O)n(O)ccc3c12` [Example 28, 3-(4-fluorobenzyl)-7-hydroxy-6-oxo-N-(2-pyrazin-2-ylethyl)-6,7-dihydro-3H-pyrrolo[2,3-c]-1,7-naphthyridine-1-carboxamide] showed an EC50 of 24 nM.

Still in this assay, the particulars now being: Human immunodeficiency virus 1, CEM-SS, 144 h, CEM-SS cells infected with HIV-1 RF, six days, XTT formazan; read-out: EC50.
Regarding `O=C1CN(Cc2cn(Cc3ccc(F)cc3)c3cnc4c(=O)n(O)ccc4c23)CCN1` [Example 6, 3-(4-fluorobenzyl)-7-hydroxy-1-[(3-oxopiperazin-1-yl)methyl]-3,7-dihydro-6H-pyrrolo[2,3-c]-1,7-naphthyridin-6-one], the EC50 is 12 nM.

Consider `O=c1c2ncc3c(c(CNCc4ccc(C(F)(F)F)cc4)cn3Cc3ccc(F)cc3)c2ccn1O` [Example 43, 3-(4-fluorobenzyl)-7-hydroxy-1-({[4-(trifluoromethyl)benzyl]amino)methyl)-3,7-dihydro-6H-pyrrolo[2,3-c]-1,7-naphthyridin-6-one], for which the EC50 was 0.8 nM.

As to `O=c1c2ncc3c(c(S(=O)(=O)NCc4ccc(F)cc4)cn3Cc3ccc(F)cc3)c2ccn1O` [Example 25, N,3-bis(4-fluorobenzyl)-7-hydroxy-6-oxo-6,7-dihydro-3H-pyrrolo[2,3-c]-1,7-naphthyridine-1-sulfonamide], the EC50 was 160 nM.

Take `COCCOCc1cn(Cc2ccc(F)cc2)c2cnc3c(=O)n(O)ccc3c12` [Example 36, 3-(4-fluorobenzyl)-7-hydroxy-1-[(2-methoxyethoxy)methyl]-3,7-dihydro-6H-pyrrolo[2,3-c]-1,7-naphthyridin-6-one]: the EC50 was 0.4 nM.

On to `CN(C)Cc1cn(Cc2ccc(F)cc2)c2cnc3c(=O)n(O)ccc3c12` [Example 4, 1-[(dimethylamino)methyl]-3-(4-fluorobenzyl)-7-hydroxy-3,7-dihydro-6H-pyrrolo[2,3-c]-1,7-naphthyridin-6-one], for which the EC50 was found to be 7 nM.

As to `CC(C)(C)OC(=O)N1CCC(COCc2cn(Cc3ccc(F)cc3)c3cnc4c(=O)n(O)ccc4c23)CC1` [Example 32, tert-butyl 4-({[3-(4-fluorobenzyl)-7-hydroxy-6-oxo-6,7-dihydro-3H-pyrrolo[2,3-c]-1,7-naphthyridin-1-yl]methoxy)methyl)pip eridine-1-carboxylate], the EC50 was found to be 6 nM.

With `NC(=O)[C@H]1CCCN1Cc1cn(Cc2ccc(F)cc2)c2cnc3c(=O)n(O)ccc3c12` [Example 12, 1-{[3-(4-fluorobenzyl)-7-hydroxy-6-oxo-6,7-dihydro-3H-pyrrolo[2,3-c]-1,7-naphthyridin-1-yl]methyl}-D-prolinamide], the EC50 was found to be 4 nM.

For the compound `CN(C)S(=O)(=O)c1cn(Cc2ccc(F)cc2)c2cnc3c(=O)n(O)ccc3c12` [Example 23, 3-(4-fluorobenzyl)-7-hydroxy-N,N-dimethyl-6-oxo-6,7-dihydro-3H-pyrrolo[2,3-c]-1,7-naphthyridine-1-sulfonamide], the EC50 worked out at 4 nM.

In the case of `O=C1c2ncc3c(ccn3Cc3ccc(F)cc3)c2CCCN1O` [Example 45, 3-(4-fluorobenzyl)-7-hydroxy-7,8,9,10-tetrahydropyrrolo[3',2' :4,5]pyrido[2,3-c]azepin-6(3H)-one], the EC50 stood at 20 nM.

Take `NC(=O)[C@@H]1CCCN1Cc1cn(Cc2ccc(F)cc2)c2cnc3c(=O)n(O)ccc3c12` [Example 5, 1-{[3-(4-fluorobenzyl)-7-hydroxy-6-oxo-6,7-dihydro-3H-pyrrolo[2,3-c]-1,7-naphthyridin-1-yl]methyl}-L-prolinamide]: the EC50 came out at 38 nM.

Turning to `CCN(Cc1ccc(C)cc1)Cc1cn(Cc2ccc(F)cc2)c2cnc3c(=O)n(O)ccc3c12` [Example 51, 1-{[ethyl(4-methylbenzyl)amino]methyl}-3-(4-fluorobenzyl)-7-hydroxy-3,7-dihydro-6H-pyrrolo[2,3-c]-1,7-naphthyridin-6-one], the EC50 was 1.3 nM.

Take `O=c1c2ncc3c(c(S(=O)(=O)NCCc4c[nH]c5ccccc45)cn3Cc3ccc(F)cc3)c2ccn1O` [Example 21, 3-(4-fluorobenzyl)-7-hydroxy-N-[2-(1 H-indol-3-yl)ethyl]-6-oxo-6,7-dihydro-3H-pyrrolo[2,3-c]-1,7-naphthyridine-1-sulfonamide]: the EC50 is 480 nM.

Turning to `CCN1CCN(Cc2cn(Cc3ccc(F)cc3)c3cnc4c(=O)n(O)ccc4c23)CC1` [Example 8, 1-[(4-ethylpiperazin-1-yl)methyl]-3-(4-fluorobenzyl)-7-hydroxy-3,7-dihydro-6H-pyrrolo[2,3-c]-1,7-naphthyridin-6-one], the EC50 came to 11 nM.

Consider `O=c1c2ncc3c(c(CN4CCc5ccccc5C4)cn3Cc3ccc(F)cc3)c2ccn1O` [Example 10, 1-(3,4-dihydroisoquinolin-2(1H)-ylmethyl)-3-(4-fluorobenzyl)-7-hydroxy-3,7-dihydro-6H-pyrrolo[2,3-c]-1,7-naphthyridin-6-one], for which the EC50 was found to be 0.41 nM.

As for `O=C1CCN(Cc2cn(Cc3ccc(F)cc3)c3cnc4c(=O)n(O)ccc4c23)CCN1` [Example 19, 3-(4-fluorobenzyl)-7-hydroxy-1-[(5-oxo-1,4-diazepan-1-yl)methyl]-3,7-dihydro-6H-pyrrolo[2,3-c]-1,7-naphthyridin-6-one], the EC50 came to 15 nM.

Take `CCCNCc1cn(Cc2ccc(F)cc2)c2cnc3c(=O)n(O)ccc3c12` [Example 40, 3-(4-fluorobenzyl)-7-hydroxy-1-[(propylamino)methyl] -3,7-dihydro-6H-pyrrolo[2,3-c]-1,7-naphthyridin-6-one]: the EC50 came to 2 nM.

In the case of `O=C1NCCC12CCN(Cc1cn(Cc3ccc(F)cc3)c3cnc4c(=O)n(O)ccc4c13)CC2` [Example 13, 3-(4-fluorobenzyl)-7-hydroxy-1-[(1-oxo-2,8-diazaspiro[4.5]dec-8-yl)methyl]-3,7-dihydro-6H-pyrrolo[2,3-c]-1,7-naphthyridin-6-one], the EC50 came to 13 nM.

`NC(=O)[C@@H]1CCCN1S(=O)(=O)c1cn(Cc2ccc(F)cc2)c2cnc3c(=O)n(O)ccc3c12` [Example 20, 1-{[3-(4-fluorobenzyl)-7-hydroxy-6-oxo-6,7-dihydro-3H-pyrrolo[2,3-c]-1,7-naphthyridin-1-yl]sulfonyl}-L-prolinamide]: the EC50 was found to be 390 nM.

As to `CN1CCN(Cc2cn(Cc3ccc(F)cc3)c3cnc4c(=O)n(O)ccc4c23)CC1` [Example 7, 3-(4-fluorobenzyl)-7-hydroxy-1-[(4-methylpiperazin-1-yl)methyl]-3,7-dihydro-6H-pyrrolo[2,3-c]-1 ,7-naphthyridin-6-one], the EC50 is 8 nM.

As to `O=c1c2ncc3c(c(CN4CCN5C[C@H](O)CC5C4)cn3Cc3ccc(F)cc3)c2ccn1O` (stereo partly drawn) [Example 55, 3-(4-fluorobenzyl)-7-hydroxy-1-{[(7R)-7-hydroxyhexahydropyrrolo[1,2-a]pyrazin-2(1 H)-yl]methyl}-3,7-dihydro-6H-pyrrolo[2,3-c]-1,7-naphthyridin-6-one], the EC50 came to 69 nM.

`O=c1c2ncc3c(ccn3Cc3ccc(F)cc3)c2ccn1O` [Example 1, 3-(4-Fluorobenzyl)-7-hydroxy-3,7-dihydro-6H-pyrrolo[2,3-c]-1,7-naphthyridin-6-one]: the EC50 is 0.4 nM.

With `O=c1c2ncc3c(c(CNC4(CO)CCCC4)cn3Cc3ccc(F)cc3)c2ccn1O` [Example 39, 3-(4-fluorobenzyl)-7-hydroxy-1-({[1-(hydroxymethyl)cyclopentyl]amino}methyl)-3,7-dihydro-6H-pyrrolo[2,3-c]-1,7-naphthyridin-6-one], the EC50 came out at 4 nM.

Turning to `CCN(CC)CCN(CC)Cc1cn(Cc2ccc(F)cc2)c2cnc3c(=O)n(O)ccc3c12` [Example 50, 1-{[[2-(diethylamino)ethyl](ethyl)amino]methyl}-3-(4-fluorobenzyl)-7-hydroxy-3,7-dihydro-6H-pyrrolo[2,3-c]-1,7-naphthyridin-6-one], the 50% effective concentration (EC50) turned out to be 8.6 nM.

For `O=c1c2ncc3c(c(CN4CCCCC4CO)cn3Cc3ccc(F)cc3)c2ccn1O` (stereo not drawn) [Example 49, 3-(4-fluorobenzyl)-7-hydroxy-1-{[2-(hydroxymethyl)piperidin-1-yl]methyl}-3,7-dihydro-6H-pyrrolo[2,3-c]-1,7-naphthyridin-6-one], the EC50 was found to be 14 nM.

For the compound `CCCCc1cc2c(ncc3c2ccn3Cc2ccc(F)cc2)c(=O)n1O` [Example 46, 8-butyl-3-(4-fluorobenzyl)-7-hydroxy-3,7-dihydro-6H-pyrrolo[2,3-c]-1,7-naphthyridin-6-one], the EC50 is 9.6 nM.

Turning to `O=c1c2ncc3c(c(CN4CCN(CCN5CCOCC5)CC4)cn3Cc3ccc(F)cc3)c2ccn1O` [Example 58, 3-(4-fluorobenzyl)-7-hydroxy-1-{[4-(2-morpholin-4-ylethyl)piperazin-1-yl]methyl}-3,7-dihydro-6H-pyrrolo[2,3-c]-1,7-naphthyridin-6-one], the EC50 was found to be 32 nM.

As for `O=c1c2ncc3c(c(COC4CCOCC4)cn3Cc3ccc(F)cc3)c2ccn1O` [Example 37, 3-(4-fluorobenzyl)-7-hydroxy-1-[(tetrahydro-2H-pyran-4-yloxy)methyl]-3,7-dihydro-6H-pyrrolo[2,3-c]-1,7-naphthyridin-6-one], the EC50 is 1 nM.

As to `O=c1c2ncc3c(c(CN4CCC(O)CC4)cn3Cc3ccc(F)cc3)c2ccn1O` [Example 53, 3-(4-fluorobenzyl)-7-hydroxy-1-[(4-hydroxypiperidin-1-yl)methyl]-3,7-dihydro-6H-pyrrolo[2,3-c]-1,7-naphthyridin-6-one], the EC50 is 13 nM.
